From patent US20070099927A1, “Aminoalkyl-pyrazinones and-pyridones as thrombin inhibitors” (priority 2003, published 2007)

What follows are molecules tested against thrombin (Homo sapiens, UniProt P00734) (assay: Ki determinations thrombin, fluorogenic substrate Tosyl-GPR-AMC). Conditions: 20° C., thrombin 100 pM, Tosyl-GPR-AMC 20 μM, HBS pH 7.4; Ki class.
Format: biochemical
Method: The Ki determinations were carried out at 20° C. with the fluorogenic substrate Tosyl-GPR-AMC (Bachem, Heidelberg, Germany; λexc=370 nm, λem=450 nm) at a thrombin concentration of 100 pM in HBS pH 7.4. The substrate was added to a final concentration of 20 μM in a total assay volume of 100 μl. The enzymatic reaction was started by addition of substrate. The emission at 450 nm was monitored in 1 minute intervals for 10 minutes using a polarstar reader (BMG Laboratories, Offenburg, Germany). Initial velocities of the control and the inhibited reactions (vo and vi) were estimated in FU/min at different compound concentrations. The inhibition constants were calculated using the Michaelis-Menten equation for competitive inhibition.

Compound	Ki
Cc1cnc(NC(Cc2ccccc2)C(N)=O)c(=O)n1CCNCCc1cccc(Cl)c1 (stereo not shown) [Example 59]	0.03 to 0.2 µM
O=c1c(NCCC2CCCCN2)ncc(Cl)n1CCNCc1n[nH]c2ccc(Cl)cc12 (single isomer, unassigned) [101 (E2), 6-Chloro-1-{2-[(5-chloro-1H-indazol-3-ylmethyl)-amino]-ethyl}-3-(2-piperidin-2-yl-ethylamino)-1H-pyrazin-2-one]	< 0.005 µM
Cc1cnc(NCC(F)(F)C2CCCCN2)c(=O)n1CCNCc1n[nH]c2ccc(Cl)cc12 (single isomer, unassigned) [85 (E1)]	< 0.005 µM
Cc1cnc(NCCC2CCCCN2C)c(=O)n1CCNCc1n[nH]c2ccc(Cl)cc12 (single isomer, unassigned) [95 (E1), 1-{2-[(5-Chloro-1H-indazol-3-ylmethyl)-amino]-ethyl}-6-methyl-3-[2-(1-methyl-piperidin-2-yl)-ethylamino]-1H-pyrazin-2-one]	< 0.005 µM
Cc1cnc(NCCC2CCCCN2C)c(=O)n1CCNCc1n[nH]c2ccc(Cl)cc12 (single isomer, unassigned) [95 (E2), 1-{2-[(5-Chloro-1H-indazol-3-ylmethyl)-amino]-ethyl}-6-methyl-3-[2-(1-methyl-piperidin-2-yl)-ethylamino]-1H-pyrazin-2-one]	< 0.005 µM
Cc1nc(N)ccc1CNCCn1c(Cl)cnc(NCC(F)(F)c2ccccn2)c1=O [Example 52]	0.03 to 0.2 µM
Cc1cnc(NCCNc2ccccn2)c(=O)n1CCNCc1cccc(Cl)c1 [Example 56]	0.03 to 0.2 µM

The next lines start with the values.

Ki	Compound
< 0.005 µM	O=c1c(NCC(F)(F)c2cccc[n+]2[O-])ncc(Cl)n1CCNCCc1cccc(Cl)c1 [Example 83]
< 0.005 µM	O=c1c(NCC(F)(F)c2cccc[n+]2[O-])ncc(Cl)n1CCNCc1n[nH]c2ccc(Cl)cc12 [Example 82]
0.005 to 0.03 µM	Cc1cnc(NCCC2CCCCN2)c(=O)n1CCNCc1cccc(Cl)c1 (stereo not shown) [Example 102]
0.005 to 0.03 µM	Cc1nc(N)ccc1CNCCn1c(Cl)cnc(NCC(F)(F)c2cccc[n+]2[O-])c1=O [Example 84]
0.005 to 0.03 µM	NC(=O)CN1CCCCC1CCNc1ncc(Cl)n(CCNCc2n[nH]c3ccc(Cl)cc23)c1=O (stereo not shown) [Example 96, 2-{2-[2-(5-Chloro-4-{2-[(5-chloro-1H-indazol-3-ylmethyl)amino]-ethyl}-3-oxo-3,4-dihydro-pyrazin-2-ylamino)-ethyl]-piperidin-1-yl}-acetamide]
< 0.005 µM	O=c1c(NCC(F)(F)c2ccccn2)ncc(Cl)n1CCNCc1n[nH]c2ccc(Cl)cc12 [Example 74]
< 0.005 µM	O=C(O)CN1CCCCC1CCNc1ncc(Cl)n(CCNCc2n[nH]c3ccc(Cl)cc23)c1=O (stereo not shown) [Example 97, {2-[2-(5-Chloro-4-{2-[(5-chloro-1H-indazol-3-ylmethyl)-amino]-ethyl}-3-oxo-3,4-dihydro-pyrazin-2-ylamino)-ethyl]-piperidin-1-yl}acetic acid]
< 0.005 µM	O=c1c(NCCc2ccccn2)ncc(Cl)n1CCNCc1n[nH]c2ccc(Cl)cc12 [Example 92]
0.03 to 0.2 µM	Cc1cnc(NCCc2ccccn2)c(=O)n1CCNCCc1nc2ccc(Cl)cc2[nH]1 [Example 99]
